# Laboratory results as given in paper PMC11054303, “Design and Synthesis of Novel N-Benzylidene Derivatives of 3-Amino-4-imino-3,5-dihydro-4H-chromeno[2,3-d]pyrimidine under Microwave, In Silico ADME Predictions, In Vitro Antitumoral Activities and In Vivo Toxicity” (Pharmaceuticals, 2024).
# “Also recorded” adds a separate entry of the source.
# Key:
# [1] = Antiproliferative assay, Caco2; format: cell-based, human; conditions: human, Caco-2; SI = IC50 fibroblasts/IC50 on Caco2; read-out: Selectivity Index (SI) Caco2
# Procedure: (§1) The potential antiproliferative activity of these novel 3-(N-phenylmethyliden)amino-4-imino-3,5-dihydro-4H-chromeno[2,3-d]pyrimidine 10(a-i) and 10-(N-phenylmethyliden)amino-11-imino-11H-naphto[1′,2′:5,6]pyrano[2,3-d]pyrimidine 10(j-l) was evaluated in a panel of eight tumoral cell lines and in diploid skin fibroblasts used as normal cell lines for control. For these antitumor assays, chosen cell lines represent diverse types of human cancer, which are, respectively, human hepatocellular carcinoma (Huh7 D12), human colon adenocarcinoma (Caco2), human breast adenocarcinoma (MDA-MB231), MDA-MB468 for human breast carcinoma which correspond to the Triple Negative Breast Cancer (TNBC), human colon carcinoma (HCT116), PC3 as cell line initiated from bone metastasis of grade IV prostatic adenocarcinoma from a person, MCF7 as breast cancer line isolated from a person and PANC1, as human pancreatic cancer cell line. The potential antiproliferative activity was preliminarily evaluated in vitro at a 25 μM single dose.
# (§2) The IC50 was calculated from the full dose-response curve and used as a parameter for the antiproliferative activity of the new compounds.
# (§3) Skin diploid fibroblastic cells were provided by BIOPREDIC International Company (Rennes, France). Huh-7D12 (Ref ECACC: 01042712), Caco2 (Ref ECACC: 86010202), MDA-MB-231 (Ref ECACC: 92020424), MDA-MB-468, HCT-116 (Ref ECACC: 91091005), PC3 (Ref ECACC: 90112714), and MCF7 cell lines were obtained from the ECACC collection. PANC1 cell lines, a generous gift of LBAI Inserm 1227 (Brest, France). Cells were grown according to ECACC recommendations in DMEM for Huh-D12, MDA-MB-231, MDA-MB-468 and fibroblast, in EMEM for Caco2, in McCoy’s for HCT-116 and RPMI for PC3 at 37 °C and 5% CO2. All culture media with 10% of FBS, 1% of penicillin-streptomycin and 2 mM glutamine.
# (§4) Chemicals were solubilized in DMSO at a concentration of 10 mM (stock solution) and diluted in a culture medium to the desired final concentrations. […] The toxicity test of the chemicals on these cells was as follows: 2 × 10^3 cells for HCT-116 cells or 4 × 10^3 for the other cells were seeded in 96-multi-well plates in triplicate and left for 24 h for attachment, spreading and growing. Then, cells were exposed for 48 h to increasing concentrations of chemicals, ranging from 0.1 μM to 25 μM, in a final volume of 120 μL of culture medium. After 48 h of treatment, cells were washed in PBS and fixed in a cooled 90% ethanol/5% acetic acid solution for 20 min. The nuclei were stained with Hoechst 3342 (B2261 Merck Sigma-Aldrich) and counted. Image acquisition and analysis were performed using automated imaging analysis with a Cellomics Arrayscan VTI/HCS Reader (Thermo/Scientific, Waltham, MA, USA). The survival percentages were calculated as the percentage of cell number after chemical treatment over cell number after DMSO treatment. The IC50 was graphically determined.
# Caco2 = experiment: Antiproliferative assay, Caco2; format: cell-based, human; conditions: Homo sapiens, Caco-2; 48 h incubation; average of three assays, standard error ± 0.5 μM
# Procedure: as §1, §2, §3, §4
# HCT 116 = experiment: Antiproliferative assay, HCT 116; format: cell-based, human
# Procedure: as §1, §2, §3, §4
# MCF7 = experiment: Antiproliferative assay, MCF7; format: cell-based, human
# Procedure: as §1, §2, §3, §4
# [2] = system: zebrafish Danio rerio embryos; experiment: Angiogenesis of vessels in mCherry transgenic zebrafish embryos; format: in vivo
# Text: Another interest of zebrafish Danio rerio is the possibility to deeply evaluate the effects of angiogenic compounds. In our model, the formation of most vessels is complete, the circulation is present, and the heart is beating after 28 hpf of development. Angiogenesis begins in the somites and in the anterior portion of the embryos. Many zebrafish blood vessels form by angiogenic sprouting and appear to require the same proteins required for blood vessel growth in mammals. By using the mCherry line transgenic zebrafish, it is possible to analyze the direct effect of a compound on the angiogenesis of dorsal vessels. Zebrafish embryos can survive up to a week without an intact circulatory system because defective vessel formation has no immediate lethal effect.
# These experiments were performed in four technical replicates.
compound,measurement,setting,value
"COc1cccc2c1Oc1ncn(/N=C/c3ccccc3O)c(=N)c1C2 [10h, (3E) 3-N-(2-Hydroxyphenylmethylidene)amino-4-imino-9-methoxy-3,5-dihydro-4H-chromeno[2,3-d]pyrimidine]",selectivity ratio at 48 h,[1],> 83.3
same,IC50,Caco2,300 nM
same,IC50,"HCT 116; Homo sapiens, HCT-116, 48 h incubation, average of three assays, standard error ± 0.5 μM",240 nM
same,Selectivity Index (SI) HCT 116,HCT 116; SI = IC50 fibroblasts/IC50 on HCT 116,> 104.2
same,IC50,"MCF7; Homo sapiens, MCF7, 48 h incubation, average of three assays, standard error ± 0.5 μM",270 nM
same,Selectivity Index (SI) MCF7,MCF7; SI = IC50 fibroblasts/IC50 on MCF7,> 92.6
same,effect on vessel angiogenesis,[2]; 5 μM dose at 72 hpf,no angiogenic effect; also recorded: cannot observe an anti-angiogenic effect; also recorded: without delay in vessel angiogenesis
same,effect on vessel angiogenesis,"[2]; 48 and 72 hpf treatment, up to 5 μM",without delay in vessel angiogenesis
